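1) Cells in 96-well plates. 2) Compound, 48 h, 5 concentrations. 3) Linear interpolation between surrounding doses. 4) Unreached endpoint = highest concentration. Here, GI50 denotes the concentration required for 50% inhibition of growth.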 The source made the active and inactive calls. No stated cut-off is given here; in the data, active = GI50 up to about 1.1 µM and inactive = higher.
Assays:
Test in all cases: NCI-60 cell line screen, 48 h
M14 = system: M14
BT-549 = system: BT-549
DU-145 = system: DU-145
LOX IMVI = system: LOX IMVI
Malme-3M = system: Malme-3M
RPMI-8226 = system: RPMI-8226
SW-620 = system: SW-620
SF-539 = system: SF-539
SF-295 = system: SF-295
SK-MEL-28 = system: SK-MEL-28
SN12C = system: SN12C
NCI-H522 = system: NCI-H522
COLO 205 = system: COLO 205
EKVX = system: EKVX
A498 = system: A498
PC-3 = system: PC-3
MDA-MB-231 = system: MDA-MB-231
SNB-19 = system: SNB-19
A549 = system: A549
HL-60 = system: HL-60
IGROV-1 = system: IGROV-1
HCC 2998 = system: HCC 2998
MDA-MB-435 = system: MDA-MB-435
SK-MEL-5 = system: SK-MEL-5
U-251 = system: U-251
KM12 = system: KM12
SK-OV-3 = system: SK-OV-3
T47D = system: T47D
HCT-15 = system: HCT-15
RXF 393 = system: RXF 393
786-0 = system: 786-0
HCT-116 = system: HCT-116
Hs-578T = system: Hs-578T
HT-29 = system: HT-29
ACHN = system: ACHN
OVCAR-8 = system: OVCAR-8
SK-MEL-2 = system: SK-MEL-2
MDA-N = system: MDA-N
MCF7 = system: MCF7
UACC-62 = system: UACC-62
HOP-62 = system: HOP-62
NCI-H460 = system: NCI-H460
SF-268 = system: SF-268
NCI-H226 = system: NCI-H226
MOLT-4 = system: MOLT-4
K562 = system: K562
NCI-H23 = system: NCI-H23
CAKI-1 = system: CAKI-1
CCRF-CEM = system: CCRF-CEM
HOP-92 = system: HOP-92
UACC-257 = system: UACC-257
OVCAR-5 = system: OVCAR-5
UO-31 = system: UO-31
TK-10 = system: TK-10
OVCAR-3 = system: OVCAR-3
SNB-75 = system: SNB-75
SR = system: SR
NCI/ADR-RES = system: NCI/ADR-RES
OVCAR-4 = system: OVCAR-4

COc1cccc(C2c3cc4c(cc3OC(NNc3ccccc3)C2C)OCO4)c1O (stereo unspecified)
GI50 (M14): 2.92 µM (inactive) | GI50 (BT-549): 7.18 µM (inactive) | GI50 (DU-145): 5.13 µM (inactive) | GI50 (LOX IMVI): 12.7 µM (inactive) | GI50 (Malme-3M): 4.66 µM (inactive) | GI50 (RPMI-8226): 4.18 µM (inactive) | GI50 (SW-620): 11 µM (inactive) | GI50 (SF-539): 3.18 µM (inactive) | GI50 (SF-295): 2.06 µM (inactive) | GI50 (SK-MEL-28): 8.77 µM (inactive) | GI50 (SN12C): 11.2 µM (inactive) | GI50 (NCI-H522): 2.36 µM (inactive) | GI50 (COLO 205): 8.75 µM (inactive) | GI50 (EKVX): 4.88 µM (inactive) | GI50 (A498): 14 µM (inactive) | GI50 (PC-3): 4.76 µM (inactive) | GI50 (MDA-MB-231): 12.6 µM (inactive) | GI50 (SNB-19): 12.8 µM (inactive) | GI50 (A549): 3.65 µM (inactive) | GI50 (HL-60): 4.48 µM (inactive) | GI50 (IGROV-1): 5.47 µM (inactive) | GI50 (HCC 2998): 2.08 µM (inactive) | GI50 (MDA-MB-435): 2.59 µM (inactive) | GI50 (SK-MEL-5): 6.21 µM (inactive) | GI50 (U-251): 5.61 µM (inactive) | GI50 (KM12): 2.38 µM (inactive) | GI50 (SK-OV-3): 21.9 µM (inactive) | GI50 (T47D): 6.15 µM (inactive) | GI50 (HCT-15): 1.62 µM | GI50 (RXF 393): 12.9 µM (inactive) | GI50 (786-0): 2.88 µM (inactive) | GI50 (HCT-116): 4.4 µM (inactive) | GI50 (Hs-578T): 11.9 µM (inactive) | GI50 (HT-29): 10.9 µM (inactive) | GI50 (ACHN): 1.5 µM (inactive) | GI50 (OVCAR-8): 2.47 µM (inactive) | GI50 (SK-MEL-2): 8.55 µM (inactive) | GI50 (MDA-N): 2.14 µM (inactive) | GI50 (MCF7): 4.67 µM (inactive) | GI50 (UACC-62): 2.43 µM (inactive) | GI50 (HOP-62): 2.51 µM (inactive) | GI50 (NCI-H460): 2.81 µM (inactive) | GI50 (SF-268): 12.2 µM (inactive) | GI50 (NCI-H226): 14.5 µM (inactive) | GI50 (MOLT-4): 4.17 µM (inactive) | GI50 (K562): 2.24 µM (inactive) | GI50 (NCI-H23): 10.1 µM (inactive) | GI50 (CAKI-1): 3.1 µM (inactive) | GI50 (CCRF-CEM): 4.68 µM (inactive) | GI50 (HOP-92): 12.6 µM (inactive) | GI50 (UACC-257): 4.57 µM (inactive) | GI50 (OVCAR-5): 9.38 µM (inactive) | GI50 (UO-31): 3.32 µM (inactive) | GI50 (TK-10): 3.62 µM (inactive) | GI50 (OVCAR-3): 2.71 µM (inactive) | GI50 (SNB-75): 6.61 µM (inactive) | GI50 (SR): 1.87 µM (inactive)

CCOC(=O)c1c2ccccc2n2c(=O)n(-c3ccccc3)nnc12
GI50 (M14): 59 µM (inactive) | GI50 (BT-549): > 100 µM (inactive) | GI50 (DU-145): > 100 µM (inactive) | GI50 (LOX IMVI): 7.93 µM (inactive) | GI50 (Malme-3M): > 100 µM (inactive) | GI50 (RPMI-8226): 15.3 µM (inactive) | GI50 (SW-620): > 100 µM (inactive) | GI50 (SF-539): > 96.4 µM (inactive) | GI50 (SF-295): 3.25 µM (inactive) | GI50 (SK-MEL-28): > 100 µM (inactive) | GI50 (SN12C): > 100 µM (inactive) | GI50 (NCI/ADR-RES): > 58.3 µM (inactive) | GI50 (COLO 205): 40.7 µM (inactive) | GI50 (EKVX): > 100 µM (inactive) | GI50 (A498): > 21.2 µM (inactive) | GI50 (PC-3): > 90.6 µM (inactive) | GI50 (MDA-MB-231): > 100 µM (inactive) | GI50 (SNB-19): > 100 µM (inactive) | GI50 (A549): 63.4 µM (inactive) | GI50 (HL-60): 23.8 µM (inactive) | GI50 (IGROV-1): 79.3 µM (inactive) | GI50 (HCC 2998): 47.1 µM (inactive) | GI50 (MDA-MB-435): 18.7 µM (inactive) | GI50 (OVCAR-4): > 71.8 µM (inactive) | GI50 (SK-MEL-5): 15.7 µM (inactive) | GI50 (U-251): 98.4 µM (inactive) | GI50 (KM12): 61 µM (inactive) | GI50 (T47D): 9.08 µM (inactive) | GI50 (HCT-15): > 76.9 µM | GI50 (RXF 393): > 55.6 µM (inactive) | GI50 (786-0): 62.4 µM (inactive) | GI50 (HCT-116): 73.8 µM (inactive) | GI50 (Hs-578T): > 100 µM (inactive) | GI50 (ACHN): > 27 µM (inactive) | GI50 (OVCAR-8): > 100 µM (inactive) | GI50 (SK-MEL-2): > 25.8 µM (inactive) | GI50 (MDA-N): > 42.4 µM (inactive) | GI50 (MCF7): 0.923 µM (active) | GI50 (UACC-62): 10.4 µM (inactive) | GI50 (HOP-62): 27.5 µM (inactive) | GI50 (NCI-H460): 30.7 µM (inactive) | GI50 (SF-268): > 100 µM (inactive) | GI50 (NCI-H226): > 40.2 µM (inactive) | GI50 (K562): 16.6 µM (inactive) | GI50 (NCI-H23): > 87.1 µM (inactive) | GI50 (CAKI-1): > 91.4 µM (inactive) | GI50 (CCRF-CEM): 1.4 µM (inactive) | GI50 (HOP-92): > 100 µM (inactive) | GI50 (UACC-257): > 33.3 µM (inactive) | GI50 (OVCAR-5): > 100 µM (inactive) | GI50 (UO-31): 74.8 µM (inactive) | GI50 (TK-10): > 100 µM (inactive) | GI50 (OVCAR-3): 17.3 µM (inactive) | GI50 (SNB-75): 27.2 µM (inactive)

O=C(O)C(O)C(O)C(O)C(O)c1nc2ccccc2s1 (stereo unspecified)
GI50 (M14): 17.8 µM (inactive) | GI50 (BT-549): 26.3 µM (inactive) | GI50 (DU-145): 16.8 µM (inactive) | GI50 (LOX IMVI): 16.9 µM (inactive) | GI50 (Malme-3M): 15.5 µM (inactive) | GI50 (RPMI-8226): 25.9 µM (inactive) | GI50 (SW-620): 22.3 µM (inactive) | GI50 (SF-539): 17.9 µM (inactive) | GI50 (SF-295): 15.6 µM (inactive) | GI50 (SK-MEL-28): 20.3 µM (inactive) | GI50 (SN12C): 18.7 µM (inactive) | GI50 (NCI-H522): 12.3 µM (inactive) | GI50 (NCI/ADR-RES): 31 µM (inactive) | GI50 (COLO 205): 34.8 µM (inactive) | GI50 (EKVX): 15.4 µM (inactive) | GI50 (A498): 24.6 µM (inactive) | GI50 (PC-3): 15.3 µM (inactive) | GI50 (MDA-MB-231): 16.6 µM (inactive) | GI50 (SNB-19): 20.1 µM (inactive) | GI50 (A549): 18.2 µM (inactive) | GI50 (HL-60): 17.6 µM (inactive) | GI50 (IGROV-1): 10.9 µM (inactive) | GI50 (MDA-MB-435): 17.3 µM (inactive) | GI50 (OVCAR-4): 20.3 µM (inactive) | GI50 (SK-MEL-5): 25.8 µM (inactive) | GI50 (U-251): 15.7 µM (inactive) | GI50 (KM12): 24.7 µM (inactive) | GI50 (SK-OV-3): 19.1 µM (inactive) | GI50 (T47D): 19.5 µM (inactive) | GI50 (HCT-15): 27.9 µM | GI50 (RXF 393): 18 µM (inactive) | GI50 (786-0): 16.8 µM (inactive) | GI50 (HCT-116): 16.1 µM (inactive) | GI50 (Hs-578T): 16.7 µM (inactive) | GI50 (HT-29): 21.2 µM (inactive) | GI50 (ACHN): 17.7 µM (inactive) | GI50 (OVCAR-8): 18.5 µM (inactive) | GI50 (SK-MEL-2): 19.2 µM (inactive) | GI50 (MDA-N): 17.1 µM (inactive) | GI50 (MCF7): 17.1 µM (inactive) | GI50 (UACC-62): 15.3 µM (inactive) | GI50 (HOP-62): 18.3 µM (inactive) | GI50 (NCI-H460): 16.3 µM (inactive) | GI50 (SF-268): 14.9 µM (inactive) | GI50 (NCI-H226): 29.8 µM (inactive) | GI50 (NCI-H23): 23.2 µM (inactive) | GI50 (CAKI-1): 17.7 µM (inactive) | GI50 (CCRF-CEM): 3.53 µM (inactive) | GI50 (HOP-92): 18.2 µM (inactive) | GI50 (UACC-257): 15.8 µM (inactive) | GI50 (OVCAR-5): 26.9 µM (inactive) | GI50 (UO-31): 15.9 µM (inactive) | GI50 (TK-10): 15.9 µM (inactive) | GI50 (OVCAR-3): 17.5 µM (inactive) | GI50 (SNB-75): 16.9 µM (inactive)

Source: ChEMBL document CHEMBL1201862, “PubChem BioAssay data set” (2004)
